# Data: patent US20200368260A1, “USE OF BENZOPYRAN COMPOUND IN PREPARATION OF PRODUCT FOR REGULATING LIPID METABOLISM AND COMPOSITION OF THE SAME” (priority 2019, published 2020)
# Legend:
# Format in all cases: cell-based, human
# HepG2 cells = assay: MTT cell viability experiment, effect of treatment time (oleic acid NAFLD cell model); conditions: for cell viability among several other groups of treatment time: other treatment times (0, 12, 24, 48 h); for cell viability: treated for 6 h, FIG. 3; for cytotoxicity with the increase in time: treatment up to 48 h
# Procedure: The HepG2 cells were seeded into a 96-well culture plate at 1×10^4 cells per well, incubated in a DMEM culture medium containing 10% fetal bovine serum for 12 h until complete confluence of the cells, and then the culture medium was replaced by respective concentrations of 0, 0.5, 1, 1.5, 2, 2.5, 3, 3.5, 4 mM of oleic acid formulated with a serum-free culture medium to treat the cells for 0, 24, 48, and 72 hours, with 4 replicate wells being set for each concentration. After the completion of the incubation, 10 μL of a freshly prepared MTT solution at a final concentration of 5 mg/mL was added into each well and the culture was continued for 4 h. Then, the liquid in the culture well was pipetted off to terminate the reaction. Each well was added with 100 μL of DMSO, and shaken fully on a plate shaker for […] such that the crystalline was fully dissolved, and an A490 absorbance was measured on a microplate reader. The cell proliferation viability was calculated according to the following formula.
# Cell proliferation viability (%)=(the OD of drug group/the OD of blank group)×100%
# 1. The culture, model establishment and experimental steps of the cells were operated according to 1.2.1. When the cells were cultured to the confluence of 70%, the cells were treated with 0.5 mM for 24 h to establish a cell model of nonalcoholic fatty liver disease. The anthocyanin compound mother liquor was diluted to 10 μM to treat the cells for 0, 6, 12, 24, and 48 h. The MTT cell proliferation viability experiment determined the optimal dosing time.
# high-fat HepG2 cells [1] = assay: Total cholesterol (TC) content in the cells, TC kit; conditions: for level of TC in a high fat cell: FIGS. 4A, 5A; for level of TC, compared with control group and low dose group: medium and high doses
# Procedure: (§1) 2. The culture, model establishment and experimental steps of the cells were operated according to the above steps. The anthocyanin compound mother liquor was diluted to 0, 0.1, 1, 10, 50, and 100 μM to treat the high-fat HepG2 cells, respectively.
# (§2) 3. The culture solution was pipetted off, gently washed with PBS for 3 times, and added with trypsin to digest the cells for 1 min The cell suspension was pipetted into a 1.5 mL sterile EP tube, centrifuged at 1000 rpm for 10 minutes, the supernatant was discarded, the pellet was added with an appropriate amount of PBS, ultrasonically crushed under the condition of an ice-water bath, and the prepared homogenate was not centrifuged and was ready for determination.
# The total cholesterol (TC) content in the cells was determined according to the operating instructions of a TC kit. The protein content in the cells was determined by a BCA protein concentration kit, and the total cholesterol content in the cells was calibrated with the protein content.
# high-fat HepG2 cells [2] = assay: Triglyceride (TG) content of the cells, TG kit; conditions: for level of TG in a high fat cell: FIGS. 4B, 5B; for level of TG, compared with control group and low dose group: medium and high doses
# Procedure: as §1, §2
# The intracellular triglyceride content was determined according to the operating instructions of a triglyceride (TG) kit. The protein content in the cells was determined by a BCA protein concentration kit, and the triglyceride content in the cells was calibrated with the protein content.
# high-fat HepG2 cells [3] = assay: Cellular alanine aminotransferase (ALT) content, ALT kit; conditions: for level of ALT in a high fat cell: FIGS. 4C, 5C; for level of ALT, compared with control group and low dose group: medium and high doses
# Procedure: as §1, §2
# The intracellular alanine aminotransferase (ALT) content was determined according to the operating instructions of an ALT kit.
# high-fat HepG2 cells [4] = assay: Cellular aspartate aminotransferase (AST) content, AST kit; conditions: for level of AST in a high fat cell: FIGS. 4D, 5D; for level of AST, compared with control group and low dose group: medium and high doses
# Procedure: as §1, §2
# The intracellular aspartate aminotransferase (AST) content was determined according to the operating instructions of an AST kit. 1.2.4 Effect of petunidin-3-O-β-D glucoside and malvidin-3-O-β-D glucose on autophagy of HepG2 cells
# APG7 = assay: Western blotting, protein expression in oleic acid induced HepG2 cells
# Procedure: (§3) The culture, model establishment and drug treatment manners of the cells were operated according to 1.2.3. After completion, cells were collected, cytoplasmic proteins were extracted, and protein electrophoresis was conducted after quantification. Particularly the following methods were used: When the cell confluence reached 70%, 0.5 mM oleic acid was added to treat the cells for 24 h. After completion, the cells were collected and the cytoplasmic protein was extracted, and the protein electrophoresis was conducted after quantification. The electrophoresis method was as follows: After cell culture was completed, the culture plate was taken out, the culture medium in the well was discarded, the pellet was washed twice with PBS, placed onto an ice bath, and added with 100 μL of a protein lysis buffer (RIPA) (PMSF was added into the cell lysis buffer at 1:1000 within few minutes before the use, with a final concentration of 1 mM) per well. After the cells were lysed for about […], the cells were scraped off with a cell scraper, pipetted into a 1.5 mL centrifuge tube (which could be crushed with an ultrasonic cell disruptor for 3-5 times), then centrifuged at 12,000 rpm under 4° C. for 15-20 mM. The supernatant was taken and transferred into a new centrifuge tube for protein quantification or storage at −80° C. Theprotein content was determined by a BCA method, and the operation method was carried out according to the instructions of the kit. After the protein concentration was measured, the protein sample was added with a 5× loading buffer and mixed uniformly at 1:4, then subjected to water bath at 100° C. for […] (entangling with a sealing film to prevent bouncing off), and stored at 4° C. The specific operation method of protein electrophoresis was in accordance with the relevant references. Since each of the molecular weight of the target proteins was within 10-80 KDa except for FASN (the separation gel was prepared according to the following table), the separation gel concentration was selected to be 10%, and the concentration of the FASN protein separation gel was selected to be 6%. A spacer gel was formulated according to the following table, and sample loading was conducted. After completion, electrophoresis should be conducted as soon as possible, where concentration was conducted at 80 v for 30 min, and then electrophoresis was conducted at 120 v until the front edge ran to the lower edge of the separation gel, and the electrophoresis was stopped. 3. Transferring The PVDF membrane was immersed in methanol for 1 min in advance and then soaked with a 1× transfer solution for 10 min. the gel was removed, the excess gel was cut off from top and bottom and left and right, and then the gel was assembled in the order of filter paper-gel-membrane-filter paper from a blackboard to a whiteboard, the bubbles were removed from therebetween, and the assembly was clamped by a clip, and placed in a transfer slot with the black side to black side, and white side to white side. After the completion of the transfer, the PVDF membrane was blocked with a TB ST room-temperature shaker containing 5% skim milk powder for 1 hour. The primary antibody was diluted with TBST containing 5% BSA or 5% skim milk powder (see the antibody instructions for specific dilution multiple). After the end of blocking, the PVDF membrane was incubated with the well-diluted primary antibody overnight at 4° C.
# APGSL = assay: as above; conditions: high dose group
# Procedure: as §3
Compound,cell viability among several other groups of treatment time (HepG2 cells),cell viability (HepG2 cells),cytotoxicity with the increase in time (HepG2 cells),level of TC in a high fat cell (high-fat HepG2 cells [1]),"level of TC, compared with control group and low dose group (high-fat HepG2 cells [1])",level of TG in a high fat cell (high-fat HepG2 cells [2]),"level of TG, compared with control group and low dose group (high-fat HepG2 cells [2])",level of ALT in a high fat cell (high-fat HepG2 cells [3]),"level of ALT, compared with control group and low dose group (high-fat HepG2 cells [3])",level of AST in a high fat cell (high-fat HepG2 cells [4]),"level of AST, compared with control group and low dose group (high-fat HepG2 cells [4])",protein expression of APG7 (APG7; high dose group),protein expression of APG7 (APG7; low doses),protein expression of APGSL (APGSL)
COc1cc(-c2[o+]c3cc(O)cc(O)c3cc2O[C@@H]2O[C@H](CO)[C@@H](O)[C@H](O)[C@H]2O)cc(OC)c1O [malvidin-3-O-β-D glucoside],no significant difference,significantly increased,not cytotoxic,reduce,very significant reduction,reduce,very significant reduction,reduce,very significant reduction,reduce,very significant reduction,inhibition trend,significant effect,inhibition trend
COc1cc(-c2[o+]c3cc(O)cc(O)c3cc2O[C@@H]2O[C@H](CO)[C@@H](O)[C@H](O)[C@H]2O)cc(O)c1O [petunidin-3-O-β-D glucoside],no significant difference,significantly increased,not cytotoxic,reduce,very significant reduction,reduce,very significant reduction,reduce,very significant reduction,reduce,very significant reduction,inhibition trend,significant effect,inhibition trend
